Reference: patent US20090297469A1, “Cyanoacrylate Monomer Formulation Containing Diiodomethyl-p-tolylsulfone and 2,4,4'-Trichloro-2'-Hydroxydiphenyl Ether” (priority 2004, published 2009)
Converted amounts (≈) assume the structure as drawn.

What was measured:
[1] = tested on: genus Staphylococcus, Staphylococcus epidermidis, Staphylococcus aureus, methicillin-resistant Staphylococcus epidermidis, and methicillin-resistant …; conditions: cited from earlier work
[2] = aqueous; cited from earlier work
[3] = tested on: Bacillus subtilis 902173; assay: MIC/MBC by tube dilution procedure; assay type: cell-based; conditions: preliminary evaluation
Protocol: (§1) The effectiveness of the antimicrobial property of pure DIMPTS is described in terms of minimum inhibitory concentration (MIC) and minimum bactericidal concentration (MBC) in Table II (A). Minimum inhibitory concentration is the lowest concentration that prevents the development of visible growth after a period of incubation. Minimum bactericidal concentration is the lowest concentration that achieves a 1000 fold or greater reduction in the original bacterial inoculum. The minimum inhibitory concentration and minimum bactericidal concentration is evaluated using tube dilution procedure.

[4] = tested on: Candida albicans 10231; assay: MIC/MBC by tube dilution procedure; assay type: cell-based; conditions: preliminary evaluation
Protocol: as §1

[5] = tested on: Escherichia coli 8739; assay: MIC/MBC by tube dilution procedure; assay type: cell-based; conditions: preliminary evaluation
Protocol: as §1

[6] = tested on: Pseudomonas aeruginosa 9027; assay: MIC/MBC by tube dilution procedure; assay type: cell-based; conditions: preliminary evaluation
Protocol: as §1

[7] = tested on: Staphylococcus aureus 6538; assay: MIC/MBC by tube dilution procedure; assay type: cell-based; conditions: preliminary evaluation
Protocol: as §1

[8] = tested on: Staphylococcus epidermidis 51625; assay: MIC/MBC by tube dilution procedure; assay type: cell-based; conditions: preliminary evaluation
Protocol: as §1

[9] = tested on: Streptococcus agalactiae 624; assay: MIC/MBC by tube dilution procedure; assay type: cell-based; conditions: preliminary evaluation
Protocol: as §1

[10] = tested on: Enterococcus faecium 700221; assay: MIC/MBC by tube dilution procedure; assay type: cell-based; conditions: preliminary evaluation
Protocol: as §1, with “DIMPTS” left out

[11] = tested on: Staphylococcus aureus 33591; assay: MIC/MBC by tube dilution procedure; assay type: cell-based; conditions: preliminary evaluation
Protocol: as §1, with “DIMPTS” left out

[12] = tested on: S. aureus, E. coli, P. aeruginosa, K. pneumoniae, P. cepacia, E. cloacae, S. marcescens, S. pyogenes, E. faecalis-Vancomycin Resistant, C. albicans and B. …; conditions: reported for blends with acrylic hot melt adhesive polymers; cited from earlier work

**Q.** For `Oc1cc(Cl)ccc1Oc1ccc(Cl)cc1Cl` [2,4,4′-trichloro-2′-hydroxydiphenyl ether], which Antimicrobial effect [1] is on record?
**A.** has an antimicrobial effect

**Q.** For `[O-][Cl+3]([O-])([O-])O` [perchloric acid], which pKa [2] is on record?
**A.** −5.0

**Q.** With `Cc1ccc(S(=O)(=O)C(I)I)cc1` [DIMPTS, diiodomethyl-p-tolylsulfone] as the molecule, how does the MBC [3] read?
**A.** 50 to 100 µg/mL (≈ 118 to 237 µM)

**Q.** And the MIC [3]?
**A.** 50 µg/mL (≈ 118 µM)

**Q.** And the MBC [4]?
**A.** 10 to 100 µg/mL (≈ 23.7 to 237 µM)

**Q.** What about the MIC [4] of the same molecule?
**A.** 5 µg/mL (≈ 11.8 µM)

**Q.** And the MBC [5]?
**A.** < 250 µg/mL

**Q.** And the MIC [5]?
**A.** 100 µg/mL (≈ 237 µM)

**Q.** And the MIC [6]?
**A.** > 100 µg/mL

**Q.** What about the MBC [7] of the same molecule?
**A.** < 250 µg/mL

**Q.** What about the MIC [7] of the same molecule?
**A.** 100 µg/mL (≈ 237 µM)

**Q.** What about the MBC [8] of the same molecule?
**A.** < 100 µg/mL

**Q.** What about the MIC [8] of the same molecule?
**A.** 25 µg/mL (≈ 59.2 µM)

**Q.** What about the MBC [9] of the same molecule?
**A.** 125 to 250 µg/mL (≈ 296 to 592 µM)

**Q.** And the MIC [9]?
**A.** 50 µg/mL (≈ 118 µM)

**Q.** And the MIC [10]?
**A.** 50 µg/mL (≈ 118 µM)

**Q.** What about the MBC [11] of the same molecule?
**A.** < 250 µg/mL

**Q.** And the MIC [11]?
**A.** 12.5 µg/mL (≈ 29.6 µM)

**Q.** What about the “Zones of inhibition against several organisms” value [12] of the same molecule?
**A.** zones of inhibition
